SMILES strings stand for the structures. Values after ≈ are worked out from the molar mass of the structure shown.

Data on one molecule can be found in ChEMBL document CHEMBL5131475, “Metallo-β-lactamases inhibitor fisetin attenuates meropenem resistance in NDM-1-producing Escherichia coli” (Eur J Med Chem, 2022).

Experiment [1] has as its system Escherichia coli. In words: Antibacterial activity against NDM-1 positive MCR1 carrying Escherichia coli ZJ487 isolates assessed as meropenem MIC incubated for 18 to 24 hrs by CLSI based broth microdilution method. The note with it: time 18-24 hrs. Format: functional. On the technique in general: Dilution methods test growth across graded concentrations, often in twofold steps.

Experiment [2] deals with Escherichia coli. In words: Antibacterial activity against pET28a-NDM-1 positive Escherichia coli BL21(DE3) isolates assessed as kanamycin MIC incubated for 18 to 24 hrs by CLSI based broth microdilution method. Format: functional. Conditions: time 18-24 hrs.
For experiment [3], the system named is Escherichia coli. In words: Antibacterial activity against pET28a-NDM-1 positive Escherichia coli BL21(DE3) isolates assessed as florfenicol MIC incubated for 18 to 24 hrs by CLSI based broth microdilution method. The note with it: time 18-24 hrs. Format: functional.
Experiment [4] concerns Escherichia coli. In words: Antibacterial activity against pET28a-NDM-1 positive Escherichia coli BL21(DE3) isolates assessed as ciprofloxacin MIC incubated for 18 to 24 hrs by CLSI based broth microdilution method. Format: functional. The note with it: time 18-24 hrs.
The subject of experiment [5] is Escherichia coli. In words: Antibacterial activity against pET28a-NDM-1 positive Escherichia coli BL21(DE3) isolates assessed as imipenem MIC incubated for 18 to 24 hrs by CLSI based broth microdilution method. Format: functional. Conditions: time 18-24 hrs.
The test system of experiment [6] is Escherichia coli. In words: Antibacterial activity against NDM-1 negative Escherichia coli ATCC25922 isolates assessed as meropenem MIC incubated for 18 to 24 hrs by CLSI based broth microdilution method. Format: functional. The note with it: time 18-24 hrs.
Experiment [7] relates to Escherichia coli. In words: Synergistic antibacterial activity against pET28a NDM-1 positive Escherichia coli BL21(DE3) isolates assessed as fractional Inhibitory concentration index incubated for 18 to 24 hrs in presence of tetracycline by CLSI based broth microdilution method. Format: functional. Conditions: time 18-24 hrs.
The subject of experiment [8] is Escherichia coli. In words: Synergistic antibacterial activity against pET28a NDM-1 positive Escherichia coli BL21(DE3) isolates assessed as fractional Inhibitory concentration index incubated for 18 to 24 hrs in presence of cefotaxime by CLSI based broth microdilution method. Format: functional. The note with it: time 18-24 hrs.
The test system of experiment [9] is Escherichia coli. In words: Synergistic antibacterial activity against pET28a NDM-1 positive Escherichia coli BL21(DE3) isolates assessed as fractional Inhibitory concentration index incubated for 18 to 24 hrs in presence of spectinomycin by CLSI based broth microdilution method. Format: functional. The note with it: time 18-24 hrs.
For experiment [10], the system named is Escherichia coli. In words: Synergistic antibacterial activity against NDM-1 positive Escherichia coli ZC-YN3 isolates assessed as fractional Inhibitory concentration index incubated for 18 to 24 hrs in presence of ampicillin by CLSI based broth microdilution method. Format: functional. Conditions: time 18-24 hrs.
Experiment [11] deals with Escherichia coli. In words: Synergistic antibacterial activity against NDM-1 positive Escherichia coli ZC-YN3 isolates assessed as fractional Inhibitory concentration index incubated for 18 to 24 hrs in presence of cefotaxime by CLSI based broth microdilution method. Format: functional. Conditions: time 18-24 hrs.
Experiment [12] deals with Escherichia coli. In words: Synergistic antibacterial activity against NDM-1 positive Escherichia coli ZC-YN3 isolates assessed as fractional Inhibitory concentration index incubated for 18 to 24 hrs in presence of spectinomycin by CLSI based broth microdilution method. Format: functional. Conditions: time 18-24 hrs.
For experiment [13], the system named is Escherichia coli. In words: Synergistic antibacterial activity against NDM-1 negative Escherichia coli ATCC25922 isolates assessed as fractional Inhibitory concentration index incubated for 18 to 24 hrs in presence of meropenem by CLSI based broth microdilution method. Format: functional. The note with it: time 18-24 hrs.
Experiment [14] can be described thus: Inhibition of metallo-beta-lactamase NDM-1 (unknown origin) using nitrocefin as substrate preincubated for 15 min followed by substrate addition and measured after 15 min by microplate reader assay. More on the design: species or system Bacteria.
Experiment [15] has as its system Bacteria.
Description: Binding affinity to NDM-1 H250A mutant (unknown origin) assessed as binding constant by fluorescence quenching method

On to `O=c1c(O)c(-c2ccc(O)c(O)c2)oc2cc(O)ccc12` [FISETIN], for which the MIC (usually the lowest concentration that inhibits growth of the organism) in experiment [1] was determined as 5.33 µg/mL; in experiment [2], 512 µg/mL; in experiment [3], 683 µg/mL; in experiment [4], 341 µg/mL; in experiment [5], 9.33 µg/mL; in experiment [6], 0.01 µg/mL. For the same molecule, the “fractional inhibitory concentration index (FICI)” value in [7] is recorded as 0.96; in experiment [8] it was 1.13; in [9] it was 0.96; in experiment [10], 1.13; in experiment [11], 1.13; in experiment [12], 1.13. Moreover, the “fractional inhibitory concentration index (FICI)” value in experiment [13] came out at 1.13. Besides, the half-maximal inhibitory concentration (IC50) – broadly, the concentration at which inhibition is half-maximal – in experiment [14] amounted to 9.66 µg/mL (≈ 33.7 µM). In experiment [15], the Ka is 6.95 10^5L/mol.
